Reference: PubChem BioAssay (NCI)
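Five concentrations, 48 hours, 96-well plates. GI50 is the concentration that inhibits growth by half. TGI is the concentration that stops growth completely.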

How the values were obtained:
Experiment in all cases: inhibition of tumour cell growth, NCI panel, 48 h
MDA-N = tested on: MDA-N
HOP-18 NSCLC = tested on: HOP-18 NSCLC
DMS 273 small cell lung = tested on: DMS 273 small cell lung
LXFL 529 NSCLC = tested on: LXFL 529 NSCLC
DMS 114 small cell lung = tested on: DMS 114 small cell lung
KM20L2 colon = tested on: KM20L2 colon
SNB-78 CNS = tested on: SNB-78 CNS
RXF-631 renal = tested on: RXF-631 renal
XF 498 CNS = tested on: XF 498 CNS

**Q.** `Cc1ccc(S(=O)(=O)Nc2ccccc2C(=O)c2ccc(C)c(C)c2)cc1` was tested. Which TGI (MDA-N) did it give?
**A.** Its TGI is > 100 µM.

**Q.** Which GI50 (HOP-18 NSCLC) does the source give for `[Cl-].[La+3].[O-]/N=C(\c1ccccc1)c1ccccn1.[O-]/N=C(\c1ccccc1)c1ccccn1.[O-]/N=C(\c1ccccc1)c1ccccn1` here?
**A.** The GI50 was 31.3 µM.

**Q.** And the TGI (HOP-18 NSCLC)?
**A.** The TGI was > 100 µM.

**Q.** What about the GI50 (DMS 273 small cell lung) of the same molecule?
**A.** The GI50 was 31.3 µM.

**Q.** And the TGI (DMS 273 small cell lung)?
**A.** Its TGI is > 100 µM.

**Q.** And the GI50 (LXFL 529 NSCLC)?
**A.** Its GI50 is 60.3 µM.

**Q.** What about the TGI (LXFL 529 NSCLC) of the same molecule?
**A.** Its TGI is > 100 µM.

**Q.** What about the GI50 (DMS 114 small cell lung) of the same molecule?
**A.** The GI50 was 30.8 µM.

**Q.** And the TGI (DMS 114 small cell lung)?
**A.** The TGI was > 100 µM.

**Q.** And the GI50 (KM20L2 colon)?
**A.** The GI50 was 46.2 µM.

**Q.** And the TGI (KM20L2 colon)?
**A.** Its TGI is > 100 µM.

**Q.** And the GI50 (SNB-78 CNS)?
**A.** Its GI50 is > 90.8 µM.

**Q.** And the TGI (SNB-78 CNS)?
**A.** The TGI was > 100 µM.

**Q.** `COc1c(Cl)c(=O)oc2ccc(Cl)cc12` was tested. Which TGI (MDA-N) did it give?
**A.** The TGI was > 100 µM.

**Q.** What does the source list for `O=C(/C=C\c1ccc(Cl)c(Cl)c1)c1ccc(Cl)cc1Cl`?
**A.** TGI (DMS 273 small cell lung): 34.8 µM; TGI (LXFL 529 NSCLC): 21.2 µM; TGI (RXF-631 renal): > 100 µM; TGI (KM20L2 colon): 28 µM

**Q.** With `NS(=O)(=O)c1cc(Br)c(N=Nc2ccc(O)c3ncccc23)c(Br)c1` as the molecule, how does the TGI (MDA-N) read?
**A.** Its TGI is > 100 µM.

**Q.** Which results are given for `CSc1nc(NC2OCC(OC(C)=O)C(OC(C)=O)C2OC(C)=O)c(N=CC=Nc2c(NC3OCC(OC(C)=O)C(OC(C)=O)C3OC(C)=O)nc(SC)[nH]c2=O)c(=O)[nH]1` (stereo not drawn)?
**A.** TGI (HOP-18 NSCLC): > 100 µM; TGI (DMS 273 small cell lung): > 100 µM; TGI (LXFL 529 NSCLC): > 100 µM; TGI (RXF-631 renal): > 100 µM; TGI (DMS 114 small cell lung): > 100 µM; TGI (KM20L2 colon): > 100 µM; TGI (MDA-N): > 100 µM; TGI (SNB-78 CNS): > 100 µM

**Q.** What does the source list for `COc1cc2c(c(OC)c1OC)-c1ccc(OC)c(=O)cc1C(NC(=O)c1ccc(N=[N+]=[N-])cc1)CC2` (stereo not drawn)?
**A.** TGI (HOP-18 NSCLC): > 100 µM; TGI (LXFL 529 NSCLC): > 47.2 µM; TGI (DMS 114 small cell lung): 0.0656 µM; TGI (KM20L2 colon): 0.0351 µM; TGI (SNB-78 CNS): > 100 µM

**Q.** How did the TGI (HOP-18 NSCLC) turn out when `Clc1ccc(C(c2ccc(Cl)cc2)c2ccccn2)cc1` was run?
**A.** The TGI was 46.6 µM.

**Q.** And the TGI (LXFL 529 NSCLC)?
**A.** The TGI was 35.3 µM.

**Q.** What about the TGI (XF 498 CNS) of the same molecule?
**A.** The TGI was 34.8 µM.

**Q.** What about the TGI (DMS 114 small cell lung) of the same molecule?
**A.** Its TGI is > 100 µM.

**Q.** And the TGI (KM20L2 colon)?
**A.** Its TGI is 29.8 µM.

**Q.** And the TGI (SNB-78 CNS)?
**A.** Its TGI is > 100 µM.

**Q.** Which TGI (MDA-N) does the source give for `O=C1NCC2(CCN(CCCC3(c4ccc(F)cc4)OCCO3)CC2)N1c1ccccc1` here?
**A.** The TGI was > 100 µM.

**Q.** Which TGI (MDA-N) does the source give for `COC(=O)C1=C(C)NC(C)=C(C(=O)OCCCN2CCC(c3ccccc3)(c3ccccc3)CC2)C1c1cccc([N+](=O)[O-])c1` (stereo not drawn) here?
**A.** Its TGI is 3.89 µM.

**Q.** Which results are given for `CCCCCCCCC/C=C1\CCC(CN2CCOCC2)C1=O` (stereo not drawn)?
**A.** TGI (HOP-18 NSCLC): 10.7 µM; TGI (DMS 273 small cell lung): 5.08 µM; TGI (LXFL 529 NSCLC): 2.95 µM; TGI (RXF-631 renal): 18.2 µM; TGI (DMS 114 small cell lung): 7.42 µM; TGI (KM20L2 colon): 20.5 µM; TGI (MDA-N): 12.7 µM; TGI (SNB-78 CNS): 15.3 µM

**Q.** How did the TGI (HOP-18 NSCLC) turn out when `CC(=O)/C(=C\c1cccc([N+](=O)[O-])c1)C(=O)Nc1ccccc1C` was run?
**A.** Its TGI is > 100 µM.

**Q.** And the TGI (LXFL 529 NSCLC)?
**A.** The TGI was > 100 µM.

**Q.** What about the TGI (XF 498 CNS) of the same molecule?
**A.** Its TGI is > 100 µM.

**Q.** And the TGI (DMS 114 small cell lung)?
**A.** The TGI was > 100 µM.

**Q.** And the TGI (KM20L2 colon)?
**A.** The TGI was > 100 µM.

**Q.** What about the TGI (SNB-78 CNS) of the same molecule?
**A.** The TGI was > 100 µM.

**Q.** Which TGI (MDA-N) does the source give for `CCCC(=O)OC1CC(n2cc(F)c(=O)[nH]c2=O)OC1COP(=O)(OCC(Cl)(Cl)Cl)OCC(Cl)(Cl)Cl` (stereo not drawn) here?
**A.** The TGI was > 31.6 µM.

**Q.** Which results are given for `Cn1c2ccccc2c2cc(-c3ccccc3)c3c(c21)C(=O)c1ccccc1C3=O`?
**A.** TGI (DMS 273 small cell lung): 44.9 µM; TGI (LXFL 529 NSCLC): 29.3 µM; TGI (XF 498 CNS): 39.7 µM; TGI (RXF-631 renal): > 100 µM; TGI (DMS 114 small cell lung): 33.6 µM; TGI (SNB-78 CNS): 54.3 µM

**Q.** What does the source list for `CCc1cc(Cc2cc(CC)c(NC(=O)C(=O)Cc3ccccn3)c(CC)c2Cl)c(Cl)c(CC)c1NC(=O)C(=O)Cc1ccccn1`?
**A.** TGI (HOP-18 NSCLC): > 100 µM; TGI (DMS 273 small cell lung): > 100 µM; TGI (LXFL 529 NSCLC): > 100 µM; TGI (XF 498 CNS): > 100 µM; TGI (DMS 114 small cell lung): > 100 µM; TGI (KM20L2 colon): > 100 µM; TGI (SNB-78 CNS): > 100 µM

**Q.** `COc1cc(NCc2ccc3oc(=O)c(-c4ccccc4)nc3c2)cc(OC)c1OC` was tested. Which TGI (MDA-N) did it give?
**A.** The TGI was > 10 µM.

**Q.** What does the source list for `O=c1cc(-c2ccccc2)oc2cc(OCCCOc3ccc4c(=O)cc(-c5ccccc5)oc4c3)ccc12`?
**A.** TGI (HOP-18 NSCLC): > 100 µM; TGI (DMS 273 small cell lung): > 100 µM; TGI (LXFL 529 NSCLC): > 100 µM; TGI (XF 498 CNS): > 100 µM; TGI (DMS 114 small cell lung): > 100 µM; TGI (KM20L2 colon): > 100 µM; TGI (SNB-78 CNS): > 100 µM

**Q.** Which TGI (MDA-N) does the source give for `Cc1ccc(S(=O)(=O)N/N=C/C2(c3ccccc3)c3ccccc3-c3ccccc32)cc1` here?
**A.** The TGI was 14.9 µM.

**Q.** With `CCOC(=O)C(=C=C=C(c1ccccc1)c1ccccc1)C(=O)OCC` as the molecule, how does the TGI (DMS 273 small cell lung) read?
**A.** The TGI was 45.5 µM.

**Q.** And the TGI (LXFL 529 NSCLC)?
**A.** The TGI was 31.4 µM.

**Q.** What about the TGI (XF 498 CNS) of the same molecule?
**A.** Its TGI is 30.3 µM.

**Q.** What about the TGI (RXF-631 renal) of the same molecule?
**A.** The TGI was 77 µM.

**Q.** What about the TGI (DMS 114 small cell lung) of the same molecule?
**A.** Its TGI is 40.1 µM.

**Q.** What about the TGI (KM20L2 colon) of the same molecule?
**A.** The TGI was 45.2 µM.

**Q.** And the TGI (SNB-78 CNS)?
**A.** Its TGI is 37 µM.

**Q.** How did the TGI (HOP-18 NSCLC) turn out when `CCN1c2ccccc2C(C(SC)S(=O)(=O)c2ccc(C)cc2)c2c1[nH]c(=O)n(C)c2=O` (stereo not drawn) was run?
**A.** The TGI was > 100 µM.

**Q.** And the TGI (DMS 273 small cell lung)?
**A.** The TGI was > 100 µM.

**Q.** What about the TGI (LXFL 529 NSCLC) of the same molecule?
**A.** Its TGI is > 100 µM.

**Q.** What about the TGI (XF 498 CNS) of the same molecule?
**A.** Its TGI is > 100 µM.

**Q.** What about the TGI (DMS 114 small cell lung) of the same molecule?
**A.** Its TGI is > 100 µM.

**Q.** And the TGI (SNB-78 CNS)?
**A.** The TGI was > 100 µM.

**Q.** How did the TGI (MDA-N) turn out when `COc1cc(OC)cc(-c2cc(=O)c3c(OC)c(OC)c(OC)c(OC)c3o2)c1` was run?
**A.** Its TGI is > 100 µM.

**Q.** For `OC(c1nc2ccccc2[nH]1)C(O)C(O)C(O)c1nc2ccccc2[nH]1` (stereo not drawn), which TGI (MDA-N) is on record?
**A.** Its TGI is > 100 µM.

**Q.** `CC1=CC(O)(c2ccc(-c3ccccc3Cl)cc2)OC1=O` (stereo not drawn) was tested. Which TGI (HOP-18 NSCLC) did it give?
**A.** The TGI was > 100 µM.

**Q.** What about the TGI (DMS 273 small cell lung) of the same molecule?
**A.** The TGI was > 100 µM.

**Q.** And the TGI (LXFL 529 NSCLC)?
**A.** Its TGI is > 100 µM.

**Q.** And the TGI (RXF-631 renal)?
**A.** Its TGI is > 100 µM.

**Q.** And the TGI (DMS 114 small cell lung)?
**A.** Its TGI is > 100 µM.

**Q.** What about the TGI (KM20L2 colon) of the same molecule?
**A.** Its TGI is > 100 µM.
